Legend:
Format in all cases: in vivo
[1] = test system: Phytophthora infestans; conditions: tomato seedlings, sprayed 17 h after inoculation; visual rating, 100 = 100% disease control, 0 = no control relative to controls; test concentration not given
[2] = test system: Plasmopara viticola; experiment: Test A: grape downy mildew, grape seedlings sprayed after inoculation; conditions: sprayed 24 h after inoculation, visual rating, 100 = 100% disease control, 0 = no control relative to controls, test concentration not given
Text: General protocol for preparing test suspensions for Test A-C: The test compounds were first dissolved in acetone in an amount equal to 3% of the final volume and then suspended at the desired concentration (in ppm) in acetone and purified water (50/50 mix by volume) containing 250 ppm of the surfactant Trem® 014 (polyhydric alcohol esters). The resulting test suspensions were then used in Tests A-C. Spraying a 40 ppm test suspension to the point of run-off on the test plants was equivalent to a rate of 100 g/ha.
Grape seedlings were inoculated with a spore suspension of Plasmopara viticola (the causal agent of grape downy mildew) and incubated in a saturated atmosphere at 20° C. for 24 h. After a short drying period, the test suspension was sprayed to the point of run-off on the grape seedlings, which were then moved to a growth chamber at 20° C. for 5 days, after which time the grape seedling were placed back into a saturated atmosphere at 20° C. for 24 h. Upon removal, visual disease ratings were made.
Results for Tests A-C are given in Table A. In the table, a rating of 100 indicates 100% disease control and a rating of 0 indicates no disease control (relative to the controls).

[3] = test system: Phytophthora infestans; conditions: tomato seedlings, sprayed the day before inoculation; visual rating, 100 = 100% disease control, 0 = no control relative to controls; test concentration not given

Compound	Percent Disease Control Test C [1] [%]	Percent Disease Control Test A [2] [%]	Percent Disease Control Test B [3] [%]
Cc1cc(C(F)(F)F)nn1CC(=O)N1CCC(c2nc(C3=NOC(c4cccc(-n5cncn5)c4)C3)cs2)CC1 (stereo not drawn) [Compound 1, 1-[4-[4-[4,5-dihydro-5-[3-(1H-1,2,4-triazol-1-yl)phenyl]-3-isoxazolyl]-2-thiazolyl]-1-piperidinyl]-2-[5-methyl-3-(trifluoromethyl)-1H-pyrazol-1-yl]ethanone]	99	91	100
Cc1cc(C(F)(F)F)nn1CC(=O)N1CCC(c2nc(C3=NOC(c4ccc(-c5ccccc5)cc4)C3)cs2)CC1 (stereo not drawn) [Compound 2]	32	76	90
Cc1cc(C(F)(F)F)nn1CC(=O)N1CCC(c2nc(C3=NOC(c4ccccc4Oc4ccccc4)C3)cs2)CC1 (stereo not drawn) [Compound 3]	93	97	100
Cc1cc(C(F)(F)F)nn1CC(=O)N1CCC(c2nc(C3=NOC(c4ccccc4N4CCCCC4)C3)cs2)CC1 (stereo not drawn) [Compound 4]	83	58	99
Cc1cc(C(F)(F)F)nn1CC(=O)N1CCC(c2nc(C3=NOC(c4ccccc4-n4cncn4)C3)cs2)CC1 (stereo not drawn) [Compound 5]	99	98	100
Cc1cc(C(F)(F)F)nn1CC(=O)N1CCC(c2nc(C3=NOC(c4ccccc4N4CCOCC4)C3)cs2)CC1 (stereo not drawn) [Compound 6]	99	87	100
Cc1cc(C(F)(F)F)nn1CC(=O)N1CCC(c2nc(C3=NOC(c4ccccc4Cc4ccccc4)C3)cs2)CC1 (stereo not drawn) [Compound 7]	86	73	99
Cc1cccc(C2CC(c3csc(C4CCN(C(=O)Cn5nc(C(F)(F)F)cc5C)CC4)n3)=NO2)c1-n1c(O)nn(C)c1=O (stereo not drawn) [Compound 8]	53	0	100
Cc1cc(C(F)(F)F)nn1CC(=O)N1CCC(c2nc(C3=NOC(c4ccccc4C(=O)c4ccccc4)C3)cs2)CC1 (stereo not drawn) [Compound 9]	17	0	100
Cc1cc(C(F)(F)F)nn1CC(=O)N1CCC(c2nc(C3=NOC(c4ccccc4N4CCN(C)CC4)C3)cs2)CC1 (stereo not drawn) [Compound 10]	93	10	100
Cc1cc(C(F)(F)F)nn1CC(=O)N1CCC(c2nc(C3=NOC(c4c(F)cccc4-n4cncn4)C3)cs2)CC1 (stereo not drawn) [Compound 11]	99	99	100
COc1nn(C)c(=O)n1-c1c(C)cccc1C1CC(c2csc(C3CCN(C(=O)Cn4nc(C(F)(F)F)cc4C)CC3)n2)=NO1 (stereo not drawn) [Compound 12]	99	31	100
Cc1cc(C(F)(F)F)nn1CC(=O)N1CCC(c2nc(C3=NOC(n4ccc(-c5ccccc5)n4)C3)cs2)CC1 (stereo not drawn) [Compound 13]	93	56	100
Cc1cc(C(F)(F)F)nn1CC(=O)N1CCC(c2nc(C3=NOC(N4C(=O)NC(C)(c5ccccc5)C4=O)C3)cs2)CC1 (stereo not drawn) [Compound 15]	97	92	100
Cc1cc(C(F)(F)F)nn1CC(=O)N1CCC(c2nc(C3=NOC(c4ccccc4-c4ccccc4)C3)cs2)CC1 (stereo not drawn) [Compound 16]	99	99	100
Cc1ccc(C)c(NC(=O)N2CCC(c3nc(C4=NOC(c5ccccc5-c5ccccc5)C4)cs3)CC2)c1 (stereo not drawn) [Compound 17, 4-[4-(5-[1,1′-biphenyl]-2-yl-4,5-dihydro-3-isoxazolyl)-2-thiazolyl]-N-(2,5-dimethylphenyl)-1-piperidinecarboxamide]	99	98	100
Cc1ccc(C)c(NC(=O)N2CCC(c3nc(C4=NOC(c5ccccc5Oc5ccccc5)C4)cs3)CC2)c1 (stereo not drawn) [Compound 18]	58	67	93
Cc1ccc(C)c(NC(=O)N2CCC(c3nc(C4=NOC(c5ccccc5-n5cncn5)C4)cs3)CC2)c1 (stereo not drawn) [Compound 19]	99	99	100
